Entries after “also recorded” stand apart in the source; their conditions may differ.
Legend:
[1] = tested on: GL261 tumor bearing mice; assay: OVA+Poly:ICLC vaccination of GL261 tumor bearing mice +/- CD200R antagonist: OVA-specific CD8 T cells and recall cytokines; assay type: in vivo, C57BL/6 mice; conditions: for SIINFEKL-specific CD8 T cells (OVA-specific T cell expansion): blood, flow cytometry
Excerpt: FIGS. 2A-2B. FIG. 2A) Vaccination scheme. Tumor bearing or non-tumor bearing mice were vaccinated on day 2 and 8 with an agonist (4012) or antagonist (6059) only, and on days 3-6 and 10 with OVA+Poly:ICLC+/−the competitive inhibitor 6059 (antagonist of a agonist). FIG. 2B) Mice were bled on day 10, whole blood was stained with an anti-CD8 and SI[[N]]INFEKL (SEQ ID NO: 11) specific detramer, lysed and analyzed by flow cytometry.
FIGS. 3A-3B. Tumor bearing or non-tumor bearing mice were vaccinated on day 2 and 8 with an agonist or antagonist only, and on days 3-6 and 10 with OVA+Poly:ICLC+/−the competitive inhibitor 6059 (antagonist of a agonist). On day 10, were harvested and stimulated with OVA protein to measure a recall response via cytokine release. FIG. 3A) TNF alpha (PG/ML) levels from tumor bearing mice. FIG. 3B) INF gamma (PG/ML) levels in tumor bearing mice.
FIGS. 12A-12C. […] Tumor and non-tumor bearing mice were vaccinated with OVA+Poly:ICLC+/−the CD200R antagonist 6059 and analyzed for FIG. 12A) SIINFEKL/Kb+CD8+ T cell expansion (‘SIINFEKL’ disclosed as SEQ ID NO: 11). FIG. 12B) Lymphocytes were harvested and stimulated with SIINFEKL peptide (SEQ ID NO: 11). Supernatants were analyzed for TNFα and IFNγ secretion. FIG. 12C) The antagonist 6059 was added to OVA+exosomes. Error bars indicate +/−SEM (n=4/group; *P<0.05; by t-test). FIGS. 12A-12C discloses ‘SIINFEKL’ disclosed as SEQ ID NO: 11.
FIGS. 18A-18D. […] (FIG. 18A & FIG. 18B) Tumor bearing mice were vaccinated with OVA+Poly:ICLC+/−antagonist then analyzed for OVA-specific T cells and cytokine production following in vitro restimulation with OVA. Tumor bearing mice were vaccinated with saline (n=10), tumor lysate+CpG (n=10) or tumor lysate+CpG+antagonist 6059 (n=10). (FIG. 18C) Mice were imaged weekly for tumor growth and (FIG. 18D) followed for survival. Error bars are ±SEM, *p<0.05, ** p<0.001 was determined by one-way ANOVA, post hoc analysis by Dunn's multiple comparison test, log-rank analysis was used for survival. […]
Anti-mouse CD8α-Pacific Blue (clone 53-6.7) was purchased from eBioscience. A SIINFEKL/K^b dextramer-PE (‘SIINFEKL’ disclosed as SEQ ID NO: 11) was used for detection of SIINFEKL/K^b-binding CD8 T-cells (Immunodex) (‘SIINFEKL’ disclosed as BEQ ID NO: 11). […] A 100 μl sample of whole blood was immediately analyzed for percentage of MDSCs ((Lineage-FITC (CD3, CD14, CD16, CD19, CD20, CD56) CD33-APC, HLA-DR-PerCp)) by flow cytometry. Sera CD200 levels were determined by ELISA (Sino Biological Inc.).
Lymph nodes were homogenized in RPMI media containing 10% FBS, penicillin/streptomycin (100 U/ml), and 0.1 mg/ml Normocin (Invivogen). […] Fifty microliters of supernatant was analyzed for IFN-γ using a flow cytometric bead array according to the manufacturer's protocol (BD Biosciences).

[2] = tested on: naïve splenocytes exposed to GL261 cells; assay: GL261 cells incubated with naive splenocytes in trans-well plate +/- CD200R antagonist: MDSC expansion and IFN-γ; assay type: cell-based, mouse
Description: FIGS. 17A-17B. CD200R antagonist blocks MDSC expansion and tumor suppressive effects. (FIG. 17A) Murine glioma GL261 was incubated with naïve splenocytes in a trans-well plate+/−CD200R antagonist and analyzed for MDSC expansion and cytokine production. (FIG. 17B) Naïve splenocytes were pulsed with purified CD200+/−CD200R antagonist and analyzed for MDSC expansion and arginase-I production. Error bars are ±SEM, statistical significance was determined by one-way ANOVA, post hoc analysis by Dunn's multiple comparison test, *p<0.05, ** p<0.001.
To determine the level of MDSC expansion when splenocytes were exposed to tumor cells, splenocytes were also harvested and purified as described above; 300,000 splenocytes were plated in the bottom of 24 well transwell plates containing a 0.4-micron filter. Following 24 hr incubation, 30,000 GL261 cells were plated on the transwell insert with and without the CD200R antagonist 6059. Total volume was 700 μl/well so that the insert was submerged in the media within the wells. Cells were incubated for 5 days, harvested, and stained with CD11b and GR-1 to determine MDSC levels. In another set of wells, OVA was added to the wells 24 hours after the splenocytes were plated. Following another 72 hr incubation, 3×10^5 purified CD8 T-cells isolated from an OT-I mouse and were added to the wells and incubated for an additional 72 hrs. […]

Sequence: NTIGDGGCY [Antagonist 6059]
- Suppressive effects of the tumor environment (overall statement) ([1]; prime boost model, tumor-bearing mice): reversed the suppressive effects in tumor-bearing mice; also recorded: reverses the suppressive effects of the tumor environment; also recorded: blocks CD200 induced immune suppression
- SIINFEKL-specific CD8 T cells (OVA-specific T cell expansion) ([1]; tumor bearing mice, OVA+Poly:ICLC +/- antagonist): reversed tumor induced suppression; also recorded: increased numbers of SIINFEKL-specific CD8 T-cells; also recorded: reversed the suppressive effects of the tumor microenvironment
- SIINFEKL-specific CD8 T cells (OVA-specific T cell expansion) ([1]; tumor bearing mice, OVA+Poly:ICLC +/- antagonist, listed as CD200 antagonist): significantly enhanced the expansion of a SIINFEKL/CD8 T cell population
- TNFα and IFNγ production after restimulation of cervical lymph node lymphocytes (recall response) ([1]; tumor bearing mice, OVA+Poly:ICLC +/- antagonist, restimulation with OVA/SIINFEKL, 48 hrs): modulate/reverse glioma-induced suppression; also recorded: significantly enhanced TNFγ and IFNγ production; also recorded: reversed the suppressive effects of the tumor microenvironment
- IFN-γ production of OT-I CD8 T-cells in response to OVA ([2]; trans-well with GL261 cells): blocked both the expansion of MDSCs as well as the production of IFN-γ
- Expansion of CD11b+Gr1+ MDSC induced by GL261 cells ([2]; trans-well, 5 days): blocked both the expansion of MDSCs

Reference: patent US10576145B2, “CD200 inhibitors and methods of use thereof” (REGENTS OF THE UNIVERSITY OF MINNESOTA, priority 2014, dated 2020)
